From ChEMBL document CHEMBL1201862, “PubChem BioAssay data set” (2004)
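Method: 48-hour compound exposure of cells in 96-well plates, five concentrations, linear interpolation of endpoints. The concentration for 50% growth inhibition is given as GI50.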 The source made the active and inactive calls. Rule as the data show it: active = GI50 up to about 1.1 µM and inactive = higher.

Tests used:
Experiment in all cases: NCI anticancer screen, dose series, 48 h
[1] = tested on: EKVX
[2] = tested on: HCT-116
[3] = tested on: IGROV-1
[4] = tested on: OVCAR-8
[5] = tested on: T47D
[6] = tested on: ACHN
[7] = tested on: MDA-MB-231
[8] = tested on: K562
[9] = tested on: UACC-62
[10] = tested on: SF-268
[11] = tested on: NCI/ADR-RES
[12] = tested on: MDA-MB-435
[13] = tested on: RPMI-8226
[14] = tested on: SW-620
[15] = tested on: HT-29
[16] = tested on: MCF7
[17] = tested on: KM12
[18] = tested on: U-251
[19] = tested on: HL-60
[20] = tested on: COLO 205
[21] = tested on: A549
[22] = tested on: M14
[23] = tested on: SK-MEL-5
[24] = tested on: NCI-H226
[25] = tested on: SK-OV-3
[26] = tested on: 786-0
[27] = tested on: SF-539
[28] = tested on: OVCAR-3
[29] = tested on: TK-10
[30] = tested on: HOP-62
[31] = tested on: UACC-257
[32] = tested on: MDA-N
[33] = tested on: SK-MEL-28
[34] = tested on: RXF 393
[35] = tested on: DU-145
[36] = tested on: SN12C
[37] = tested on: NCI-H460
[38] = tested on: MOLT-4
[39] = tested on: OVCAR-5
[40] = tested on: SF-295
[41] = tested on: UO-31
[42] = tested on: HCC 2998
[43] = tested on: NCI-H23
[44] = tested on: HCT-15
[45] = tested on: Hs-578T
[46] = tested on: SK-MEL-2
[47] = tested on: OVCAR-4
[48] = tested on: SNB-19
[49] = tested on: A498
[50] = tested on: HOP-92
[51] = tested on: SNB-75
[52] = tested on: BT-549
[53] = tested on: Malme-3M
[54] = tested on: NCI-H522
[55] = tested on: CCRF-CEM
[56] = tested on: PC-3
[57] = tested on: SR
[58] = tested on: CAKI-1

Compound: O=C1CSC(c2c[nH]c3ccccc23)N1c1ccc(Cl)cc1 (stereo not drawn)
- GI50 [1]: 59.7 µM (inactive)
- GI50 [2]: > 100 µM (inactive)
- GI50 [3]: > 100 µM (inactive)
- GI50 [4]: > 100 µM (inactive)
- GI50 [5]: > 100 µM (inactive)
- GI50 [6]: > 100 µM (inactive)
- GI50 [7]: > 100 µM (inactive)
- GI50 [8]: > 100 µM (inactive)
- GI50 [9]: > 100 µM (inactive)
- GI50 [10]: > 100 µM (inactive)
- GI50 [11]: > 100 µM (inactive)
- GI50 [12]: > 100 µM (inactive)
- GI50 [13]: > 100 µM (inactive)
- GI50 [14]: > 100 µM (inactive)
- GI50 [15]: > 100 µM (inactive)
- GI50 [16]: > 100 µM (inactive)
- GI50 [17]: > 100 µM (inactive)
- GI50 [18]: > 100 µM (inactive)
- GI50 [19]: > 100 µM (inactive)
- GI50 [20]: > 100 µM (inactive)
- GI50 [21]: > 100 µM (inactive)
- GI50 [22]: > 100 µM (inactive)
- GI50 [23]: > 100 µM (inactive)
- GI50 [24]: > 100 µM (inactive)
- GI50 [25]: > 100 µM (inactive)
- GI50 [26]: > 100 µM (inactive)
- GI50 [27]: > 100 µM (inactive)
- GI50 [28]: > 100 µM (inactive)
- GI50 [29]: > 100 µM (inactive)
- GI50 [30]: > 100 µM (inactive)
- GI50 [31]: > 100 µM (inactive)
- GI50 [32]: > 100 µM (inactive)
- GI50 [33]: > 100 µM (inactive)
- GI50 [34]: > 100 µM (inactive)
- GI50 [35]: > 100 µM (inactive)
- GI50 [36]: > 100 µM (inactive)
- GI50 [37]: > 100 µM (inactive)
- GI50 [38]: > 100 µM (inactive)
- GI50 [39]: > 100 µM (inactive)
- GI50 [40]: > 100 µM (inactive)
- GI50 [41]: > 100 µM (inactive)
- GI50 [42]: > 100 µM (inactive)
- GI50 [43]: > 100 µM (inactive)
- GI50 [44]: > 100 µM
- GI50 [45]: > 100 µM (inactive)
- GI50 [46]: > 100 µM (inactive)
- GI50 [47]: > 100 µM (inactive)
- GI50 [48]: > 100 µM (inactive)
- GI50 [49]: > 100 µM (inactive)
- GI50 [50]: 2.85 µM (inactive)
- GI50 [51]: 37.1 µM (inactive)
- GI50 [52]: > 100 µM (inactive)

Compound: Cc1cn(C2CC(N)C(CN)O2)c(=O)[nH]c1=O (stereo not drawn)
- GI50 [1]: > 100 µM (inactive)
- GI50 [2]: > 100 µM (inactive)
- GI50 [3]: > 100 µM (inactive)
- GI50 [4]: > 100 µM (inactive)
- GI50 [5]: 37.8 µM (inactive)
- GI50 [6]: > 100 µM (inactive)
- GI50 [8]: > 100 µM (inactive)
- GI50 [9]: > 100 µM (inactive)
- GI50 [10]: > 100 µM (inactive)
- GI50 [11]: > 100 µM (inactive)
- GI50 [12]: > 100 µM (inactive)
- GI50 [13]: > 100 µM (inactive)
- GI50 [14]: > 100 µM (inactive)
- GI50 [15]: > 100 µM (inactive)
- GI50 [16]: > 100 µM (inactive)
- GI50 [17]: > 100 µM (inactive)
- GI50 [18]: > 100 µM (inactive)
- GI50 [19]: > 100 µM (inactive)
- GI50 [20]: > 100 µM (inactive)
- GI50 [21]: > 100 µM (inactive)
- GI50 [53]: > 100 µM (inactive)
- GI50 [22]: > 100 µM (inactive)
- GI50 [54]: > 100 µM (inactive)
- GI50 [23]: > 100 µM (inactive)
- GI50 [55]: > 100 µM (inactive)
- GI50 [24]: 40.6 µM (inactive)
- GI50 [25]: > 100 µM (inactive)
- GI50 [56]: > 100 µM (inactive)
- GI50 [26]: > 100 µM (inactive)
- GI50 [27]: > 100 µM (inactive)
- GI50 [28]: > 100 µM (inactive)
- GI50 [29]: > 100 µM (inactive)
- GI50 [30]: > 100 µM (inactive)
- GI50 [31]: > 100 µM (inactive)
- GI50 [32]: 35.6 µM (inactive)
- GI50 [33]: > 100 µM (inactive)
- GI50 [34]: > 100 µM (inactive)
- GI50 [35]: > 100 µM (inactive)
- GI50 [36]: 80.7 µM (inactive)
- GI50 [37]: > 100 µM (inactive)
- GI50 [38]: > 100 µM (inactive)
- GI50 [39]: > 100 µM (inactive)
- GI50 [40]: > 100 µM (inactive)
- GI50 [41]: > 100 µM (inactive)
- GI50 [42]: > 100 µM (inactive)
- GI50 [43]: > 100 µM (inactive)
- GI50 [57]: > 100 µM (inactive)
- GI50 [44]: > 100 µM
- GI50 [45]: > 100 µM (inactive)
- GI50 [46]: > 100 µM (inactive)
- GI50 [47]: > 100 µM (inactive)
- GI50 [58]: > 100 µM (inactive)
- GI50 [48]: > 100 µM (inactive)
- GI50 [49]: > 100 µM (inactive)
- GI50 [50]: > 100 µM (inactive)
- GI50 [51]: 38.5 µM (inactive)
- GI50 [52]: > 100 µM (inactive)

Compound: CCCC[S+]([O-])CCC(N)C(=O)O (stereo not drawn)
- GI50 [1]: > 100 µM (inactive)
- GI50 [2]: > 100 µM (inactive)
- GI50 [3]: > 100 µM (inactive)
- GI50 [4]: > 100 µM (inactive)
- GI50 [5]: > 100 µM (inactive)
- GI50 [6]: > 100 µM (inactive)
- GI50 [7]: > 100 µM (inactive)
- GI50 [8]: > 100 µM (inactive)
- GI50 [9]: > 100 µM (inactive)
- GI50 [10]: > 100 µM (inactive)
- GI50 [11]: > 100 µM (inactive)
- GI50 [14]: > 100 µM (inactive)
- GI50 [15]: > 100 µM (inactive)
- GI50 [16]: > 100 µM (inactive)
- GI50 [17]: > 100 µM (inactive)
- GI50 [18]: > 100 µM (inactive)
- GI50 [19]: > 100 µM (inactive)
- GI50 [20]: > 100 µM (inactive)
- GI50 [21]: > 100 µM (inactive)
- GI50 [53]: 1.94 µM (inactive)
- GI50 [22]: > 100 µM (inactive)
- GI50 [54]: > 100 µM (inactive)
- GI50 [23]: > 100 µM (inactive)
- GI50 [55]: > 100 µM (inactive)
- GI50 [24]: > 100 µM (inactive)
- GI50 [25]: > 100 µM (inactive)
- GI50 [56]: > 100 µM (inactive)
- GI50 [26]: > 100 µM (inactive)
- GI50 [27]: > 100 µM (inactive)
- GI50 [28]: > 100 µM (inactive)
- GI50 [29]: > 100 µM (inactive)
- GI50 [30]: > 100 µM (inactive)
- GI50 [31]: > 100 µM (inactive)
- GI50 [32]: > 100 µM (inactive)
- GI50 [33]: > 100 µM (inactive)
- GI50 [34]: > 100 µM (inactive)
- GI50 [35]: > 100 µM (inactive)
- GI50 [36]: > 100 µM (inactive)
- GI50 [37]: > 100 µM (inactive)
- GI50 [38]: > 100 µM (inactive)
- GI50 [39]: > 100 µM (inactive)
- GI50 [40]: > 100 µM (inactive)
- GI50 [41]: > 100 µM (inactive)
- GI50 [42]: > 100 µM (inactive)
- GI50 [43]: > 100 µM (inactive)
- GI50 [57]: > 100 µM (inactive)
- GI50 [44]: > 100 µM
- GI50 [45]: > 100 µM (inactive)
- GI50 [47]: > 100 µM (inactive)
- GI50 [58]: > 100 µM (inactive)
- GI50 [48]: > 100 µM (inactive)
- GI50 [49]: > 100 µM (inactive)
- GI50 [51]: > 100 µM (inactive)
- GI50 [52]: > 100 µM (inactive)
